Assay: xn = mol fraction of the nth substance listed
Settings: 101 kPa, Liquid

BrCCBr [1,2-dibromoethane] + CCCCCCC
Settings | mass density [kg/m3] | speed of sound [m/s]
292.6 K, x1 = 0.6005 | – | 996.77
292.62 K, x1 = 0.2 | – | 1079.5
292.64 K, x1 = 0.1024 | – | 1112.1
292.64 K, x1 = 0.2986 | – | 1050.8
292.66 K, x1 = 0.6997 | – | 989.87
292.68 K, x1 = 0.4002 | – | 1027.2
292.68 K, x1 = 0.8004 | – | 989.25
292.7 K, x1 = 0.4996 | – | 1009.4
292.7 K, x1 = 0.9061 | – | 995.84
292.84 K, x1 = 1 | – | 1007.5
293.15 K, x1 = 0.1018 | 776.01 | –
293.15 K, x1 = 0.2052 | 878.46 | –
293.15 K, x1 = 0.2931 | 973.9 | –
293.15 K, x1 = 0.3754 | 1070.54 | –
293.15 K, x1 = 0.3919 | 1091.09 | –
293.15 K, x1 = 0.5009 | 1234.71 | –
293.15 K, x1 = 0.5993 | 1379.31 | –
293.15 K, x1 = 0.6916 | 1530.51 | –
293.15 K, x1 = 0.7886 | 1707.97 | –
293.15 K, x1 = 0.8919 | 1922 | –
293.15 K, x1 = 1 | 2178.77 | –
298.15 K, x1 = 0.1018 | 771.16 | –
298.15 K, x1 = 0.2052 | 872.98 | –
298.15 K, x1 = 0.2931 | 968 | –
298.15 K, x1 = 0.3754 | 1064.3 | –
298.15 K, x1 = 0.3919 | 1084.74 | –
298.15 K, x1 = 0.5009 | 1227.73 | –
298.15 K, x1 = 0.5993 | 1372.04 | –
298.15 K, x1 = 0.6916 | 1522.49 | –
298.15 K, x1 = 0.7886 | 1699.34 | –
298.15 K, x1 = 0.8919 | 1912.55 | –
298.15 K, x1 = 1 | 2168.41 | –
298.56 K, x1 = 0.1024 | – | 1088
298.56 K, x1 = 0.9061 | – | 980
298.58 K, x1 = 0.2 | – | 1056.5
298.59 K, x1 = 0.4996 | – | 990.17
298.59 K, x1 = 0.6005 | – | 978.03
298.6 K, x1 = 0.4002 | – | 1006.7
298.6 K, x1 = 0.6997 | – | 972.29
298.68 K, x1 = 0.8004 | – | 972.17
298.69 K, x1 = 0.2986 | – | 1028.6
299.17 K, x1 = 1 | – | 991.14
303.15 K, x1 = 0.1018 | 766.4 | –
303.15 K, x1 = 0.2052 | 867.72 | –
303.15 K, x1 = 0.2931 | 962.23 | –
303.15 K, x1 = 0.3754 | 1058 | –
303.15 K, x1 = 0.3919 | 1078.36 | –
303.15 K, x1 = 0.5009 | 1220.93 | –
303.15 K, x1 = 0.5993 | 1364.69 | –
303.15 K, x1 = 0.6916 | 1514.35 | –
303.15 K, x1 = 0.7886 | 1690.56 | –
303.15 K, x1 = 0.8919 | 1903.13 | –
303.15 K, x1 = 1 | 2157.94 | –
303.37 K, x1 = 1 | – | 980.18
303.54 K, x1 = 0.4002 | – | 989.74
303.57 K, x1 = 0.9061 | – | 966.53
303.59 K, x1 = 0.1024 | – | 1067.7
303.61 K, x1 = 0.2 | – | 1037.2
303.61 K, x1 = 0.6997 | – | 957.6
303.62 K, x1 = 0.6005 | – | 962.51
303.65 K, x1 = 0.2986 | – | 1010.6
303.66 K, x1 = 0.4996 | – | 973.72
303.78 K, x1 = 0.8004 | – | 957.87
308.15 K, x1 = 0.1018 | 761.38 | –
308.15 K, x1 = 0.2052 | 862.14 | –
308.15 K, x1 = 0.2931 | 956.31 | –
308.15 K, x1 = 0.3754 | 1051.8 | –
308.15 K, x1 = 0.3919 | 1071.93 | –
308.15 K, x1 = 0.5009 | 1213.97 | –
308.15 K, x1 = 0.5993 | 1357.19 | –
308.15 K, x1 = 0.6916 | 1506.3 | –
308.15 K, x1 = 0.7886 | 1681.76 | –
308.15 K, x1 = 0.8919 | 1893.55 | –
308.15 K, x1 = 1 | 2147.47 | –
308.44 K, x1 = 0.9061 | – | 953.47
308.57 K, x1 = 0.6997 | – | 943.03
308.58 K, x1 = 0.4002 | – | 972.63
308.59 K, x1 = 0.6005 | – | 947.22
308.59 K, x1 = 0.8004 | – | 944.46
308.62 K, x1 = 0.1024 | – | 1047.4
308.62 K, x1 = 0.2986 | – | 992.63
308.65 K, x1 = 0.2 | – | 1018
308.75 K, x1 = 1 | – | 966.56
309.57 K, x1 = 0.4996 | – | 954.55
313.15 K, x1 = 0.1018 | 756.39 | –
313.15 K, x1 = 0.2052 | 856.68 | –
313.15 K, x1 = 0.2931 | 950.37 | –
313.15 K, x1 = 0.3754 | 1045.35 | –
313.15 K, x1 = 0.3919 | 1065.57 | –
313.15 K, x1 = 0.5009 | 1207.14 | –
313.15 K, x1 = 0.5993 | 1349.51 | –
313.15 K, x1 = 0.6916 | 1498.2 | –
313.15 K, x1 = 0.7886 | 1673.14 | –
313.15 K, x1 = 0.8919 | 1884.12 | –
313.15 K, x1 = 1 | 2136.96 | –
314.45 K, x1 = 1 | – | 952
314.52 K, x1 = 0.9061 | – | 937.35
314.55 K, x1 = 0.6997 | – | 925.53
314.56 K, x1 = 0.2 | – | 995.72
314.58 K, x1 = 0.4002 | – | 952.25
314.58 K, x1 = 0.8004 | – | 927.74
314.59 K, x1 = 0.1024 | – | 1023.6
314.59 K, x1 = 0.4996 | – | 938.54
314.59 K, x1 = 0.6005 | – | 928.96
314.61 K, x1 = 0.2986 | – | 971.18
